In the SangsterLogP compilation:

experiment: method code SF-AQ, from DOI: 10.1016/0003-9861(68)90547-x, PMID: 5677592

| logP | Structure (SMILES) |
| --- | --- |
| 0.26 | OC[C@H]1O[C@@H](Oc2ccc(Cl)cc2)[C@H](O)[C@@H](O)[C@@H]1O |

experiment: method code SF-CR+AS, from DOI: 10.1016/0003-9861(68)90547-x, PMID: 5677592

| logP | Structure (SMILES) |
| --- | --- |
| 0.49 | OC[C@H]1O[C@@H](Oc2cccc(C(F)(F)F)c2)[C@H](O)[C@@H](O)[C@@H]1O |
| 0.65 | CC(C)c1cccc(O[C@@H]2O[C@H](CO)[C@H](O)[C@H](O)[C@H]2O)c1 |
| 1.01 | CC(C)(C)c1cccc(O[C@@H]2O[C@H](CO)[C@@H](O)[C@H](O)[C@H]2O)c1 |
| -0.16 | Cc1ccc(O[C@@H]2O[C@H](CO)[C@@H](O)[C@H](O)[C@H]2O)cc1 |
| -0.73 | COc1ccc(O[C@@H]2O[C@H](CO)[C@@H](O)[C@H](O)[C@H]2O)cc1 |
| -0.7 | OC[C@H]1OC(OCc2ccccc2)[C@H](O)[C@@H](O)[C@@H]1O (stereo partly specified) |
| -1.22 | OCc1ccccc1O[C@@H]1O[C@H](CO)[C@@H](O)[C@H](O)[C@H]1O |
| 0.31 | CCc1cccc(O[C@@H]2O[C@H](CO)[C@@H](O)[C@H](O)[C@H]2O)c1 |
| -0.63 | OC[C@H]1O[C@@H](OC2CCCCC2)[C@H](O)[C@@H](O)[C@@H]1O |
| -2.67 | Nc1ccc(O[C@@H]2O[C@H](CO)[C@@H](O)[C@H](O)[C@H]2O)cc1 |
| 0.76 | OC[C@H]1O[C@@H](Oc2ccc3ccccc3c2)[C@H](O)[C@@H](O)[C@@H]1O |
| -0.2 | Cc1cccc(O[C@@H]2O[C@H](CO)[C@@H](O)[C@H](O)[C@H]2O)c1 |
| -1.35 | OC[C@H]1O[C@@H](Oc2ccc(O)cc2)[C@H](O)[C@@H](O)[C@@H]1O |
| 1.18 | CC(C)(C)c1ccc(O[C@@H]2O[C@H](CO)[C@@H](O)[C@H](O)[C@H]2O)cc1 |
| 0.27 | OC[C@H]1O[C@@H](Oc2ccccc2I)[C@H](O)[C@@H](O)[C@@H]1O |
| -0.52 | COc1cccc(O[C@@H]2O[C@H](CO)[C@@H](O)[C@H](O)[C@H]2O)c1 |
| -1.04 | COc1ccccc1O[C@@H]1O[C@H](CO)[C@@H](O)[C@H](O)[C@H]1O |
| -0.71 | OC[C@H]1O[C@@H](Oc2ccccc2)[C@H](O)[C@@H](O)[C@@H]1O |
| -1.23 | Nc1ccccc1O[C@@H]1O[C@H](CO)[C@@H](O)[C@H](O)[C@H]1O |
| 0.26 | Cc1cc(C)cc(O[C@@H]2O[C@H](CO)[C@@H](O)[C@H](O)[C@H]2O)c1 |
| 1.07 | Cc1ccc(C(C)C)c(O[C@@H]2O[C@H](CO)[C@@H](O)[C@H](O)[C@H]2O)c1 |
| -0.16 | Cc1ccccc1O[C@@H]1O[C@H](CO)C(O)[C@H](O)[C@H]1O (stereo in doubt) |
| 0.75 | OC[C@H]1O[C@@H](Oc2ccc(I)cc2)[C@H](O)[C@@H](O)[C@@H]1O |
| -0.78 | O=[N+]([O-])c1ccccc1O[C@@H]1O[C@H](CO)[C@@H](O)[C@H](O)[C@H]1O |

experiment: method code SF-CR, from DOI: 10.1016/0003-9861(68)90547-x, PMID: 5677592

| logP | Structure (SMILES) |
| --- | --- |
| 2.73 | CC(C)(C)c1cc(OC2OC(CO)C(O)C(O)C2O)cc(C(C)(C)C)c1 (stereo unspecified) |
